By IC50 is commonly meant the midpoint of a concentration-inhibition curve.

For 19 compounds, IC50 results are on record in US8481522B2, “Platinum-N-heterocyclic carbene derivatives, preparation thereof and therapeutic use thereof” (Sanofi, priority 2008, dated 2013).

Values joined by “and” are separate entries in the source; they are usually repeats but may differ in a detail not shown here. Equal values may be shown once.

What all share (type): cell-based
The test system of one test is SK-OV-3. Description: Cytotoxicity, adherent cells, 14C-thymidine incorporation (cell proliferation). The conditions noted are these: SK-OV-3 human ovarian cancer, 96 h treatment, read-out: SKOV3 IC50. The protocol:
SK-OV-3 is a human ovarian cancer. […] This cell has an intrinsic mechanism of resistance to cisplatin which is linked to high levels of glutathione (Br J Cancer 1998; 78:175-180). This cell line is commonly used to explore the effects of high levels of glutathione on the resistance to platinum compounds (Br J Cancer 1996, 74: 380-386).
(§1) Cell proliferation is evaluated by the incorporation of ^14C-thymidine into the DNA of the cells. A549, CH1, CH1/DDP and H460 are cultured in Dulbecco's modified Eagle's medium (DMEM), SK-OV-3 in Mc-Coy medium, A2780 and A2780/DDP in RPMI1640 medium. All the media contain 10% foetal calf serum, 2 mM L-glutamine, 100 units/ml of penicillin and […] of streptomycin. The incubation is performed at 37° C. in a 95% air/5% CO2 atmosphere.
(§2) The cells, at the exponential growth phase, are introduced into the wells of a Cytostar 96-well plate, containing a scintillation fluid (Cytostar-T scintillating microplate, GE Healthcare Bio-Sciences AB, Uppsala, Sweden), at the density of 5×10^3 to 10^4 cells per well, in an amount of 180 μl per well. After incubating for 4 hours, the test compounds are added. The compounds are prepared beforehand as a stock solution at the concentration of 10 mM in DMSO. A serial dilution is performed before the compounds are brought into contact with the cells in a volume of 10 μl. After incubating for 72 hours at 37° C. in an atmosphere of 95% air/5% CO2, 0.1 μCi/well of ^14C-thymidine is added. 24 h later (total 96 h of treatment), the incorporation of ^14C-thymidine is recorded on a suitable scintillation counter (MicroBeta radioactivity counting, Perkin-Elmer Life Sciences, Boston, Mass., USA). The mean values obtained in the experimental groups are divided by the mean values obtained in the control groups in order to obtain percentages relative to the controls.
(§3) The IC50 values are evaluated from curves presenting the percentage viability as a function of the concentration of the test compound, using the Biostat speed software. The IC50 is defined as the concentration of the compound which inhibits 50% of the cell proliferation or 50% of the cell viability.
For orientation: Dividing cells build labelled thymidine or BrdU into new DNA.

A further test has as its system H460. The test is described as above. The conditions noted are these: NCI-H460 human non-small cell lung cancer, 96 h treatment. Here is the method: NCI-H460 is a human non-small cell lung cancer which has a mutation in the K-ras gene. This cell is sensitive to platinum compounds. In this cell line, cisplatin forms more adducts than oxaliplatin at the same concentration and yet the percentage repair is higher for oxaliplatin (DNA Repair 2006, 5: 219-225).
as §1, §2, §3

A further test has as its system CCRF-CEM cells. Briefly: Cytotoxicity, non-adherent CCRF-CEM cells, CellTiter-Glo luminescent cell viability. The following applies: CCRF-CEM human T leukaemia, 96 h incubation. The protocol:
CCRF-CEM is a human T leukaemia (Cancer 1965, 18: 522-529). Oxaliplatin induces bifunctional lesions such as inter- and intra-DNA strand adducts on these CCRF-CEM cells (Mol Pharmacol 2000, 58: 920-927). […] This deficiency makes these cells particularly […] to alkylating agents and to platinum compounds.
For the non-adherent CCRF-CEM cells, the cell viability is measured by the luminescence test CellTiter-Glo® Luminescent Cell Viability Assay (Promega, Madison, Wis., USA). When it is added to the cells, the reagent produces a luminescence in the presence of the ATP of the living cells. The results are evaluated on a suitable reader (Envision, Perkin-Elmer Life Sciences, Boston, Mass., USA).
The CCRF-CEM cells are cultured in RPMI1640 medium containing 10% foetal calf serum, 2 mM L-glutamine, 100 units/ml of penicillin and […] of streptomycin, at 37° C. in a 95% air/5% CO2 atmosphere. The cells, at the exponential growth phase, are introduced into the wells of a 96-well plate at the density of 5×10^3 cells per well in an opaque plate (Greiner), in a volume of 150 μl. After incubating for 4 h at 37° C. in a 95% air/5% CO2 atmosphere, the compounds (concentrated 20-fold) are added in a volume of 8 μl. The compounds are prepared beforehand as a stock solution at the concentration of 10 mM in DMSO. A serial dilution is performed before the compounds are brought into contact with the cells. After incubating for 96 h at 37° C., 100 μl of agents (CellTiter-Glo) are added. After lysing the cells, the release of ATP is evaluated on the Envision reader.
as §3
A general note: In ATP-based viability assays light output follows the ATP content of the culture.

The subject of another test is A2780/DDP. Briefly: Cytotoxicity, adherent cells, 14C-thymidine incorporation (cell proliferation). The following applies: A2780/DDP cisplatin-resistant human ovarian cancer, 96 h treatment.
From the text: (§4) A2780 and A2780/DDP are human ovarian cancer lines. […] The resistance of the A2780/DDP line is of the acquired type and involves various mechanisms: —reduction in the capacity for internalization of cisplatin, —replicative bypass (this is defined as the possibility for a replicative complex to synthesize DNA beyond the site of damage) (Cancer Res 1994; 54:3500-3505), —active detoxification by glutathione (Exp Oncol 2005; 27:191-195), —low activity of Caspase-3, enzymes involved in the process of programmed cell death (J Cancer Res Clin Oncol 2004; 130:423-428) and finally high nuclear efflux of platinum compounds (Oncol Rep 2004; 12:1365-1370).
as §1, §2, §3

Another test has as its system A2780. Described as above. The following applies: A2780 human ovarian cancer, 96 h treatment.
From the text: as §4, §1, §2, §3

Consider `[I][Pt-2]([I])([NH2+]C1CCCCC1)[c]1n(Cc2ccccc2)cc[n+]1Cc1ccccc1` [Example 12, trans-diiodo(N-cyclohexylamine)[1,3-dibenzylimidazol-2-ylidene]-platinum(II)], for which the concentration for half-maximal inhibition (IC50) was 2.8 µM in the test on SK-OV-3; 3.4 µM in the test on H460; 1.3 µM in the test with CCRF-CEM cells; 1.2 µM in the test with A2780/DDP; 0.7 µM in the test with A2780.
For `Cn1[c](=[Pt-]([I])([I])[NH2+]C2CC3CCC2C3)n(C)c2ccccc21` (single isomer, unassigned) [Example 16, trans-diiodo(N-exo(+)bicyclo[2.2.1]heptylamine)(1,3-di-methylbenzimidazol-2-ylidene)platinum(II)] the same measures were 4.1 µM, 4.1 µM, 1.4 µM, 2.7 µM and 1.1 µM.
Turning to `Cn1ccn(C)[c]1=[Pt-]([I])([I])[NH2+]Cc1ccc(C(F)(F)F)cc1` [Example 14, trans-diiodo[N-4-(trifluoromethyl)benzylamine](1,3-dimethylimidazol-2-ylidene)platinum(II)], the IC50 was found to be 2.6 µM with H460 and 1.7 µM in the test with CCRF-CEM cells.
For `Cn1ccn(Cc2ccc(C(F)(F)F)cc2)[c]1=[Pt-]([NH2+]C1CCCCC1)([O][N+](=O)[O-])[O][N+](=O)[O-]` [Example 34, trans-dinitrato(N-cyclohexylamine)[1-methyl-3-(4-trifluoromethyl-benzyl)imidazol-2-ylidene]platinum(II)] the same measures were 3.1 µM and 1.4 µM.
For `Cn1ccn(C)[c]1=[Pt-]([I])([I])[NH2+]Cc1ccccc1` [Example 13, trans-diiodo(N-benzylamine)(1,3-dimethylimidazol-2-ylidene)-platinum(II)] the same measures were 3 µM and 1.7 µM.
Consider `Cn1ccn(C)[c]1=[Pt-]([I])([I])[NH2+]C1CC2CCC1C2` (single isomer, unassigned) [Example 24, trans-diiodo(N-exo(−)bicyclo[2.2.1]heptylamine)(1,3-dimethylimidazol-2-ylidene)platinum(II)], for which the IC50 with H460 is 2.1 µM; in the test with CCRF-CEM cells, 0.9 µM.
For `Cn1ccn(Cc2ccc(C(F)(F)F)cc2)[c]1=[Pt-]([I])([I])[NH+]1CCOCC1` [Example 36, trans-diiodo(N-morpholine)(1-methyl-3-(4-trifluoromethylbenzyl)-imidazol-2-ylidene)platinum(II)] the same measures were 0.9 µM and 0.6 µM.
For `CC(C)(C)[n+]1ccn(Cc2ccccc2)[c]1[Pt-2]([I])([I])[n+]1ccccc1` [Reference product, trans-diiodo(pyridine)(1-benzyl-3-tert-butylimidazol-2-ylidene)platinum(II), reference compound] the same measures were 4.4 µM and 3.9 µM.
For `Cn1c(-c2ccccc2)c(-c2ccccc2)n(C)[c]1=[Pt]([I])([I])[NH]C1CCCCC1` [Example 22, trans-diiodo(N-cyclohexylamine)[1,3-dimethyl-4,5-diphenylimidazol-2-ylidene]platinum(II)] the same measures were 1.8 µM and 1.2 µM.
For `Cn1cnn(C)[c]1=[Pt]([I])([I])[NH]C1CCCCC1` [Example 2, trans-diiodo(N-cyclohexylamine)(1,4-dimethyl-1,2,4-triazol-5-ylidene)platinum(II)], the concentration for half-maximal inhibition (IC50) in the test on H460 was determined as 2.5 µM; in the test on CCRF-CEM cells it was 1.5 µM.
Take `Cn1ccn(Cc2ccc(C(F)(F)F)cc2)[c]1=[Pt-]([Br])([Br])[NH2+]C1CCCCC1` [Example 38, trans-dibromo(N-cyclohexylamine)[1-methyl-3-(4-trifluoromethyl-benzyl)imidazol-2-ylidene]platinum(II)]: the IC50 was determined as 3 µM in the test with H460 and 2.2 µM in the test with CCRF-CEM cells.
Regarding `Cn1ccn(C)[c]1=[Pt-]([I])([I])[NH2+]C1CC2CCC1C2` (single isomer, unassigned) [Example 23, trans-diiodo(N-exo(+)bicyclo[2.2.1]heptylamine)(1,3-dimethylimidazol-2-ylidene)platinum(II)], the concentration for half-maximal inhibition (IC50) in the test with H460 was found to be 2.3 µM; with CCRF-CEM cells it was 1.6 µM.
For `Cn1ccn(Cc2ccccc2)[c]1=[Pt-]([I])([I])[NH2+]C1CCOCC1` [Example 29, trans-diiodo(N-4-aminotetrahydropyran)(1-methyl-3-benzylimidazol-2-ylidene)platinum(II)] the same measures were 0.9 µM and 0.5 µM.
Take `Cn1[c](=[Pt]([I])([I])[NH]C2CCCCC2)n(C)c2ccccc21` [Example 8, trans-diiodo(N-cyclohexylamine)(1,3-dimethylbenzimidazol-2-ylidene)platinum(II)]: the 50% inhibitory concentration (IC50) in the test on H460 turned out to be 1.9 µM; with CCRF-CEM cells, 3.1 µM.
For `Cn1cc[n+](Cc2ccc(C(F)(F)F)cc2)[c]1[Pt-2]([I])([I])[NH2+]C1CCOCC1` [Example 37, trans-diiodo(N-tetrahydropyran-4-ylamine)(1-methyl-3-(4-trifluoro-methylbenzyl)imidazol-2-ylidene)platinum(II)] the same measures were 1.4 µM and 0.9 µM.
For `C=Cn1ccn(C)[c]1=[Pt-]([I])([I])[NH2+]C1CCCCC1` [Example 15, trans-diiodo(N-cyclohexylamine)[1-methyl-3-vinylimidazol-2-ylidene]platinum(II)] the same measures were 3.8 µM and 2.1 µM.
As to `COc1ccc(Cn2cc[n+](C)[c]2[Pt-2]([I])([I])[NH2+]C2CCCCC2)cc1OC` [Example 35, trans-diiodo(N-cyclohexylamine)[3-(3,4-dimethoxybenzyl)-1-methylimidazol-2-ylidene]platinum(II)], the half-maximal inhibitory concentration (IC50) in the test with H460 came to 2.7 µM; in the test on CCRF-CEM cells, 1.3 µM.
`Cn1ccn(C)[c]1=[Pt-]([I])([I])[NH2+]C1CCCCC1` [Example 1, trans-diiodo(N-cyclohexylamine)(1,3-dimethylimidazol-2-ylidene)platinum(II)]: the IC50 in the test with H460 was 5.4 µM and 3 µM; with CCRF-CEM cells, 2.8 µM and 1.9 µM.
Turning to “trans-diiodo(N-cyclohexylamine)(1-methyl-3-phenyl-1,2,4-triazol-5-ylidene)platinum(II) [Example 19]”, the results for the 50% inhibitory concentration (IC50) in the test with H460 and with CCRF-CEM cells were 2.3 µM and 1 µM, respectively.
